Results taken from PubChem BioAssay AID2060616 (Molecular Pharmacology Branch, DTP, NCI, 2025).
pIC50: −log10 of the molar value.

Test system: 377384-186-R-J1-PDC complex spheroid viability
Test: Anticancer human tumor 377384-186-R-J1-PDC patient-derived pancreatic carcinoma cell line growth inhibition [CLK]
Details: for pIC50: curve of first compound; for viability, T/C: stronger effect = lower value
How it was run: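 Multi-cell-type spheroids combined patient-derived tumor cells with HUVEC endothelial cells and human mesenchymal stem cells. Paired agents were dosed in half-log steps down from about clinical Cmax, or from 10 microM where Cmax was unknown.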

[1] = second compound 0.0316 µM, first compound 0.0316 µM
[2] = second compound 0.0316 µM, first compound 0.1 µM
[3] = second compound 0.0316 µM, first compound 0.316 µM
[4] = second compound 0.0316 µM, first compound 1 µM
[5] = second compound 0.1 µM, first compound 0.0316 µM
[6] = second compound 0.1 µM, first compound 0.1 µM
[7] = second compound 0.1 µM, first compound 0.316 µM
[8] = second compound 0.1 µM, first compound 1 µM
[9] = second compound 0.316 µM, first compound 0.0316 µM
[10] = second compound 0.316 µM, first compound 0.1 µM
[11] = second compound 0.316 µM, first compound 0.316 µM
[12] = second compound 0.316 µM, first compound 1 µM
[13] = second compound 1 µM, first compound 0.0316 µM
[14] = second compound 1 µM, first compound 0.1 µM
[15] = second compound 1 µM, first compound 0.316 µM
[16] = second compound 1 µM, first compound 1 µM
[17] = second compound 3.16 µM, first compound 0.0316 µM
[18] = second compound 3.16 µM, first compound 0.1 µM
[19] = second compound 3.16 µM, first compound 0.316 µM
[20] = second compound 3.16 µM, first compound 1 µM
[21] = second compound 10 µM, first compound 0.0316 µM
[22] = second compound 10 µM, first compound 0.1 µM
[23] = second compound 10 µM, first compound 0.316 µM
[24] = second compound 10 µM, first compound 1 µM
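Further: spheroids exposed to agents for 7 days before reading.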
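Wherever viability, T/C is given: luminescence signal used as a stand-in for viable cells.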

C=CC(=O)Nc1cc(Nc2nccc(-c3cn(C)c4ccccc34)n2)c(OC)cc1N(C)CCN(C)C + CN1CCN(c2cc(C(=O)Nc3cc4cc(-c5cnn(C)c5)ccc4cn3)ccn2)CC1
pIC50 (second compound 0.0316 µM): < 6.52 | pIC50 (second compound 0.1 µM): < 6.52 | pIC50 (second compound 0.316 µM): > 9.02 | pIC50 (second compound 1 µM): > 9.02 | pIC50 (second compound 3.16 µM): > 9.02 | pIC50 (second compound 10 µM): > 9.02 | viability, T/C (second compound 0.0316 µM, first compound 0.000949 µM): 91.6% | viability, T/C (second compound 0.0316 µM, first compound 0.003 µM): 100% | viability, T/C (second compound 0.0316 µM, first compound 0.00949 µM): 90.7% | viability, T/C (second compound 0.0316 µM, first compound 0.03 µM): 93.6% | viability, T/C (second compound 0.0316 µM, first compound 0.0949 µM): 79.5% | viability, T/C (second compound 0.0316 µM, first compound 0.3 µM): 76.3% | viability, T/C (second compound 0.1 µM, first compound 0.000949 µM): 109% | viability, T/C (second compound 0.1 µM, first compound 0.003 µM): 99.4% | viability, T/C (second compound 0.1 µM, first compound 0.00949 µM): 83.3% | viability, T/C (second compound 0.1 µM, first compound 0.03 µM): 91.2% | viability, T/C (second compound 0.1 µM, first compound 0.0949 µM): 79.2% | viability, T/C (second compound 0.1 µM, first compound 0.3 µM): 63% | viability, T/C (second compound 0.316 µM, first compound 0.000949 µM): 26.1% | viability, T/C (second compound 0.316 µM, first compound 0.003 µM): 26.6% | viability, T/C (second compound 0.316 µM, first compound 0.00949 µM): 25.1% | viability, T/C (second compound 0.316 µM, first compound 0.03 µM): 26.5% | viability, T/C (second compound 0.316 µM, first compound 0.0949 µM): 23.7% | viability, T/C (second compound 0.316 µM, first compound 0.3 µM): 22.2% | viability, T/C (second compound 1 µM, first compound 0.000949 µM): 1.11% | viability, T/C (second compound 1 µM, first compound 0.003 µM): 1.28% | viability, T/C (second compound 1 µM, first compound 0.00949 µM): 2.15% | viability, T/C (second compound 1 µM, first compound 0.03 µM): 1.55% | viability, T/C (second compound 1 µM, first compound 0.0949 µM): 1.26% | viability, T/C (second compound 1 µM, first compound 0.3 µM): 1.63% | viability, T/C (second compound 3.16 µM, first compound 0.000949 µM): 0.48% | viability, T/C (second compound 3.16 µM, first compound 0.003 µM): 0.71% | viability, T/C (second compound 3.16 µM, first compound 0.00949 µM): 1.03% | viability, T/C (second compound 3.16 µM, first compound 0.03 µM): 0.37% | viability, T/C (second compound 3.16 µM, first compound 0.0949 µM): 0.75% | viability, T/C (second compound 3.16 µM, first compound 0.3 µM): 2.51% | viability, T/C (second compound 10 µM, first compound 0.000949 µM): 0.83% | viability, T/C (second compound 10 µM, first compound 0.003 µM): 1.36% | viability, T/C (second compound 10 µM, first compound 0.00949 µM): 1.97% | viability, T/C (second compound 10 µM, first compound 0.03 µM): 0.66% | viability, T/C (second compound 10 µM, first compound 0.0949 µM): 2.03% | viability, T/C (second compound 10 µM, first compound 0.3 µM): 0.56%

CCN1CCN(Cc2ccc(Nc3ncc(F)c(-c4cc(F)c5nc(C)n(C(C)C)c5c4)n3)nc2)CC1 + CN1CCN(c2cc(C(=O)Nc3cc4cc(-c5cnn(C)c5)ccc4cn3)ccn2)CC1
pIC50 (second compound 0.0316 µM): 6.44 | pIC50 (second compound 0.1 µM): 6.29 | pIC50 (second compound 0.316 µM): > 8.50 | pIC50 (second compound 1 µM): > 8.50 | pIC50 (second compound 3.16 µM): > 8.50 | pIC50 (second compound 10 µM): > 8.50 | viability, T/C (second compound 0.0316 µM, first compound 0.00316 µM): 107% | viability, T/C (second compound 0.0316 µM, first compound 0.01 µM): 78.2% | viability, T/C [1]: 84% | viability, T/C [2]: 66.3% | viability, T/C [3]: 48.8% | viability, T/C [4]: 39.5% | viability, T/C (second compound 0.1 µM, first compound 0.00316 µM): 98.1% | viability, T/C (second compound 0.1 µM, first compound 0.01 µM): 101% | viability, T/C [5]: 76.7% | viability, T/C [6]: 79.8% | viability, T/C [7]: 54.6% | viability, T/C [8]: 40.5% | viability, T/C (second compound 0.316 µM, first compound 0.00316 µM): 24.1% | viability, T/C (second compound 0.316 µM, first compound 0.01 µM): 28.6% | viability, T/C [9]: 26% | viability, T/C [10]: 22.9% | viability, T/C [11]: 24.4% | viability, T/C [12]: 24.4% | viability, T/C (second compound 1 µM, first compound 0.00316 µM): 1.06% | viability, T/C (second compound 1 µM, first compound 0.01 µM): 1.3% | viability, T/C [13]: 1.79% | viability, T/C [14]: 1.66% | viability, T/C [15]: 1.27% | viability, T/C [16]: 1.25% | viability, T/C (second compound 3.16 µM, first compound 0.00316 µM): 0.33% | viability, T/C (second compound 3.16 µM, first compound 0.01 µM): 0.44% | viability, T/C [17]: 1.09% | viability, T/C [18]: 0.39% | viability, T/C [19]: 2.28% | viability, T/C [20]: 2.3% | viability, T/C (second compound 10 µM, first compound 0.00316 µM): 1.2% | viability, T/C (second compound 10 µM, first compound 0.01 µM): 0.43% | viability, T/C [21]: 0.55% | viability, T/C [22]: 0.44% | viability, T/C [23]: 1.76% | viability, T/C [24]: 0.24%

Nc1ccccc1NC(=O)c1ccc(CNC(=O)OCc2cccnc2)cc1 + CN1CCN(c2cc(C(=O)Nc3cc4cc(-c5cnn(C)c5)ccc4cn3)ccn2)CC1
pIC50 (second compound 0.0316 µM): 6.11 | pIC50 (second compound 0.1 µM): 6.09 | pIC50 (second compound 0.316 µM): > 7.50 | pIC50 (second compound 1 µM): > 7.50 | pIC50 (second compound 3.16 µM): > 7.50 | pIC50 (second compound 10 µM): > 7.50 | viability, T/C [1]: 103% | viability, T/C [2]: 90% | viability, T/C [3]: 76.3% | viability, T/C [4]: 42.4% | viability, T/C (second compound 0.0316 µM, first compound 3.16 µM): 16.2% | viability, T/C (second compound 0.0316 µM, first compound 10 µM): 1.31% | viability, T/C [5]: 109% | viability, T/C [6]: 103% | viability, T/C [7]: 90.8% | viability, T/C [8]: 38.9% | viability, T/C (second compound 0.1 µM, first compound 3.16 µM): 17.7% | viability, T/C (second compound 0.1 µM, first compound 10 µM): 0.84% | viability, T/C [9]: 30.4% | viability, T/C [10]: 28.1% | viability, T/C [11]: 29.1% | viability, T/C [12]: 19% | viability, T/C (second compound 0.316 µM, first compound 3.16 µM): 3.98% | viability, T/C (second compound 0.316 µM, first compound 10 µM): 0.15% | viability, T/C [13]: 1.55% | viability, T/C [14]: 1.77% | viability, T/C [15]: 1.31% | viability, T/C [16]: 0.3% | viability, T/C (second compound 1 µM, first compound 3.16 µM): 0.25% | viability, T/C (second compound 1 µM, first compound 10 µM): 0.12% | viability, T/C [17]: 0.38% | viability, T/C [18]: 0.95% | viability, T/C [19]: 0.9% | viability, T/C [20]: 0.39% | viability, T/C (second compound 3.16 µM, first compound 3.16 µM): 0.52% | viability, T/C (second compound 3.16 µM, first compound 10 µM): 0.62% | viability, T/C [21]: 0.58% | viability, T/C [22]: 0.42% | viability, T/C [23]: 0.45% | viability, T/C [24]: 0.3% | viability, T/C (second compound 10 µM, first compound 3.16 µM): 0.62% | viability, T/C (second compound 10 µM, first compound 10 µM): 0.76%
